How the values were obtained:
Format in all cases: in vivo
Abutilon theophrasti [1] = assay: Test Example 4: herbicidal effect by soil treatment (symbol M); details: for M: Abutilon theophrasti, herbicidal effect grade: 320 g/ha
Procedure, shortened: (§1)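 Seeds were sown in sterilized diluvial soil, covered with about 1.5 cm of soil, and the soil surface was sprayed with a water-diluted emulsion of the compound at a predetermined rate. Plants grew in a greenhouse at 25° C. to 30° C.; effects were scored visually 3 weeks after application.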

Alopecurus myosuroides = assay: Test Example 4: herbicidal effect by soil treatment (symbol J); details: for J: Alopecurus myosuroides, herbicidal effect grade: 320 g/ha
Procedure, shortened: as §1

Abutilon theophrasti [2] = assay: Test Example 5: herbicidal effect by foliage application, plastic box (symbol M); details: 320 g/ha, 3 weeks after application
Procedure, shortened: (§2)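 Seeds were sown in sterilized diluvial soil, covered with about 1.5 cm of soil and grown 14 days in a greenhouse at 25° C. to 30° C. An emulsifiable formulation diluted in water to a set rate was sprayed over foliage, and injury was scored 3 weeks later.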

rice = assay: Test Example 4: effect on crop by soil treatment (symbol b); details: for b: directly sowed rice plant, effect grade on crop: 320 g/ha
Procedure, shortened: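 The test used sterilized diluvial soil. Seed was set down in spots and overlaid with about 1.5 cm of soil before growth in a greenhouse kept at 25° C. to 30° C.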

Avena fatua = assay: Test Example 4: herbicidal effect by soil treatment (symbol I); details: for I: Avena fatua, herbicidal effect grade: 320 g/ha
Procedure, shortened: as §1

[3] = system: Echinochloa oryzacola Vasing.; assay: Test Example 2: herbicidal activity, application during weed generation in submerged conditions (symbol A); details: Table 23; application herbicide amount 320 g/ha; grade 0-5 by criteria of Test Example 1
Procedure, shortened: (§3)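 Compound was applied as a water-diluted emulsion into the standing water of flooded pots (4 cm) once co-sown weeds reached one to two leaves. Greenhouse temperature was 25° C. to 30° C., soil was alluvial, and each species was rated visually after 3 weeks.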

[4] = system: Echinochloa crus-galli var. crus-galli; assay: Test Example 5: herbicidal effect by foliage application, plastic box (symbol H); details: 320 g/ha, 3 weeks after application
Procedure, shortened: as §2

Chenopodium album = assay: Test Example 4: herbicidal effect by soil treatment (symbol O); details: for O: Chenopodium album, herbicidal effect grade: 320 g/ha
Procedure, shortened: as §1

beet = assay: Test Example 5: effect on crop by foliage application, plastic box (symbol f); details: 320 g/ha, 3 weeks after application
Procedure, shortened: (§4)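 Foliage-application test plants come from spot sowing in sterilized diluvial soil under a soil layer of about 1.5 cm, grown at 25° C. to 30° C. in a greenhouse.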

rapeseed = assay: Test Example 5: effect on crop by foliage application, plastic box (symbol g); details: 320 g/ha, 3 weeks after application
Procedure, shortened: as §4

Digitaria ciliaris = assay: Test Example 4: herbicidal effect by soil treatment (symbol F); details: for F: Digitaria ciliaris, herbicidal effect grade: 320 g/ha
Procedure, shortened: as §1

Monochoria vaginalis [5] = assay: Test Example 1: herbicidal activity, application before weed generation in submerged conditions (symbol C); details: application herbicide amount 320 g/ha
Procedure, shortened: (§5)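 Flooded alluvial soil (4 cm water) was mixed-sown with the three weed species, and 2.5-leaf rice seedlings were transplanted. On sowing day, a water-diluted emulsion at a predetermined rate was applied to the water surface. After 3 weeks in a 25–30 °C greenhouse, effect was scored 0–5.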

Scirpus juncoides = assay: Test Example 2: herbicidal activity, application during weed generation in submerged conditions (symbol B); details: Table 23; application herbicide amount 320 g/ha; grade 0-5 by criteria of Test Example 1
Procedure, shortened: as §3

Monochoria vaginalis [6] = assay: Test Example 2: herbicidal activity, application during weed generation in submerged conditions (symbol C); details: Table 23; application herbicide amount 320 g/ha; grade 0-5 by criteria of Test Example 1
Procedure, shortened: as §3

Amaranthus retroflexus = assay: Test Example 5: herbicidal effect by foliage application, plastic box (symbol N); details: 320 g/ha, 3 weeks after application
Procedure, shortened: as §2

[7] = system: Echinochloa oryzacola Vasing.; assay: Test Example 1: herbicidal activity, application before weed generation in submerged conditions (symbol A); details: application herbicide amount 320 g/ha
Procedure, shortened: as §5

[8] = application herbicide amount 320 g/ha

Structure (SMILES)	M: Abutilon theophrasti, herbicidal effect grade (Abutilon theophrasti [1])	J: Alopecurus myosuroides, herbicidal effect grade (Alopecurus myosuroides)	M: Abutilon theophrasti, herbicidal effect (criteria 0-5) (Abutilon theophrasti [2])	b: directly sowed rice plant, effect grade on crop (rice)	I: Avena fatua, herbicidal effect grade (Avena fatua)	Herbicidal effect grade, A: Echinochloa oryzacola Vasing. [3]	H: Echinochloa crus-galli var. crus-galli, herbicidal effect (criteria 0-5) [4]	O: Chenopodium album, herbicidal effect grade (Chenopodium album)	f: beet, effect on crop (criteria 0-5) (beet)	g: rapeseed, effect on crop (criteria 0-5) (rapeseed)	F: Digitaria ciliaris, herbicidal effect grade (Digitaria ciliaris)	Herbicidal effect grade, C: Monochoria vaginalis (Monochoria vaginalis [5])	Herbicidal effect grade, B: Scirpus juncoides (Scirpus juncoides)	Herbicidal effect grade, C: Monochoria vaginalis (Monochoria vaginalis [6])	N: Amaranthus retroflexus, herbicidal effect (criteria 0-5) (Amaranthus retroflexus)	Herbicidal effect grade, A: Echinochloa oryzacola Vasing. [7]	M: Abutilon theophrasti, herbicidal effect grade (Abutilon theophrasti [2])	H: Echinochloa crus-galli var. crus-galli, herbicidal effect grade [4]	f: beet, effect on crop grade (beet)	g: rapeseed, effect on crop grade (rapeseed)	other results
CON=C(C)CC1CC(OC(=O)COc2ccc(Br)cc2)=C(c2c(C)cc(C)cc2C)C1=O (centres unmarked) [1-081]	4 (Herbicidal ratio of 70% or higher and lower than 90%)	5 (Herbicidal ratio of 90% or more (almost completely withered))	4 (Herbicidal ratio of 70% or higher and lower than 90%)	5 (Herbicidal ratio of 90% or more (almost completely withered))	3 (Herbicidal ratio of 40% or higher and lower than 70%)	5 (Herbicidal ratio of 90% or more (almost completely withered))	5 (Herbicidal ratio of 90% or more (almost completely withered))	0 (Herbicidal ratio of 5% or lower (almost no effect))	0 (Herbicidal ratio of 5% or lower (almost no effect))	5 (Herbicidal ratio of 90% or more (almost completely withered))	5 (Herbicidal ratio of 90% or more (almost completely withered))	2 (Herbicidal ratio of 20% or higher and lower than 40%)	4 (Herbicidal ratio of 70% or higher and lower than 90%)	3 (Herbicidal ratio of 40% or higher and lower than 70%)	5 (Herbicidal ratio of 90% or more (almost completely withered))	5 (Herbicidal ratio of 90% or more (almost completely withered))	–	–	–	–	–
CON=C(CC1CC(O)=C(c2c(C)cc(Br)cc2C)C1=O)C1CC1 (centres unmarked) [9-002]	–	–	–	–	–	5 (Herbicidal ratio of 90% or more (almost completely withered))	–	–	–	–	–	0 (Herbicidal ratio of 5% or lower (almost no effect))	0 (Herbicidal ratio of 5% or lower (almost no effect))	0 (Herbicidal ratio of 5% or lower (almost no effect))	–	5 (Herbicidal ratio of 90% or more (almost completely withered))	4 (Herbicidal ratio of 70% or higher and lower than 90%)	5 (Herbicidal ratio of 90% or more (almost completely withered))	0 (Herbicidal ratio of 5% or lower (almost no effect))	4 (Herbicidal ratio of 70% or higher and lower than 90%)	Herbicidal effect grade, M: Abutilon theophrasti (Abutilon theophrasti [1]; [8]): 0 (Herbicidal ratio of 5% or lower (almost no effect)); Herbicidal effect grade, J: Alopecurus myosuroides (Alopecurus myosuroides; [8]): 5 (Herbicidal ratio of 90% or more (almost completely withered)); Effect on crop grade, b: directly sowed rice plant (rice; [8]): 5 (Herbicidal ratio of 90% or more (almost completely withered)); Herbicidal effect grade, I: Avena fatua (Avena fatua; [8]): 3 (Herbicidal ratio of 40% or higher and lower than 70%); Herbicidal effect grade, O: Chenopodium album (Chenopodium album; [8]): 0 (Herbicidal ratio of 5% or lower (almost no effect)); Herbicidal effect grade, F: Digitaria ciliaris (Digitaria ciliaris; [8]): 5 (Herbicidal ratio of 90% or more (almost completely withered)); N: Amaranthus retroflexus, herbicidal effect grade (Amaranthus retroflexus): 3 (Herbicidal ratio of 40% or higher and lower than 70%)
CON=C(C)CC1CC(OC(=O)COc2ccc(C=O)cc2)=C(c2c(C)cc(C)cc2C)C1=O (centres unmarked) [1-079]	5 (Herbicidal ratio of 90% or more (almost completely withered))	5 (Herbicidal ratio of 90% or more (almost completely withered))	4 (Herbicidal ratio of 70% or higher and lower than 90%)	5 (Herbicidal ratio of 90% or more (almost completely withered))	3 (Herbicidal ratio of 40% or higher and lower than 70%)	5 (Herbicidal ratio of 90% or more (almost completely withered))	5 (Herbicidal ratio of 90% or more (almost completely withered))	0 (Herbicidal ratio of 5% or lower (almost no effect))	0 (Herbicidal ratio of 5% or lower (almost no effect))	5 (Herbicidal ratio of 90% or more (almost completely withered))	5 (Herbicidal ratio of 90% or more (almost completely withered))	3 (Herbicidal ratio of 40% or higher and lower than 70%)	4 (Herbicidal ratio of 70% or higher and lower than 90%)	3 (Herbicidal ratio of 40% or higher and lower than 70%)	0 (Herbicidal ratio of 5% or lower (almost no effect))	5 (Herbicidal ratio of 90% or more (almost completely withered))	–	–	–	–	–
CC(CC1CC(O)=C(c2c(C)cc(C)cc2C)C1=O)=NOC(C)C (centres unmarked) [1-052]	–	–	–	–	–	5 (Herbicidal ratio of 90% or more (almost completely withered))	–	–	–	–	–	0 (Herbicidal ratio of 5% or lower (almost no effect))	2 (Herbicidal ratio of 20% or higher and lower than 40%)	0 (Herbicidal ratio of 5% or lower (almost no effect))	–	5 (Herbicidal ratio of 90% or more (almost completely withered))	3 (Herbicidal ratio of 40% or higher and lower than 70%)	5 (Herbicidal ratio of 90% or more (almost completely withered))	0 (Herbicidal ratio of 5% or lower (almost no effect))	4 (Herbicidal ratio of 70% or higher and lower than 90%)	M (Abutilon theophrasti) herbicidal effect grade (Abutilon theophrasti [1]; [8]): 4 (Herbicidal ratio of 70% or higher and lower than 90%); J (Alopecurus myosuroides) herbicidal effect grade (Alopecurus myosuroides; [8]): 5 (Herbicidal ratio of 90% or more (almost completely withered)); b (directly sowed rice plant) effect on crop grade (rice; [8]): 5 (Herbicidal ratio of 90% or more (almost completely withered)); I (Avena fatua) herbicidal effect grade (Avena fatua; [8]): 4 (Herbicidal ratio of 70% or higher and lower than 90%); O (Chenopodium album) herbicidal effect grade (Chenopodium album; [8]): 0 (Herbicidal ratio of 5% or lower (almost no effect)); F (Digitaria ciliaris) herbicidal effect grade (Digitaria ciliaris; [8]): 5 (Herbicidal ratio of 90% or more (almost completely withered)); N: Amaranthus retroflexus, herbicidal effect grade (Amaranthus retroflexus): 0 (Herbicidal ratio of 5% or lower (almost no effect))
CON=C(C)CC1CC(OC(=O)COc2ccc3ccccc3c2)=C(c2c(C)cc(C)cc2C)C1=O (centres unmarked) [1-083]	4 (Herbicidal ratio of 70% or higher and lower than 90%)	5 (Herbicidal ratio of 90% or more (almost completely withered))	4 (Herbicidal ratio of 70% or higher and lower than 90%)	5 (Herbicidal ratio of 90% or more (almost completely withered))	3 (Herbicidal ratio of 40% or higher and lower than 70%)	5 (Herbicidal ratio of 90% or more (almost completely withered))	5 (Herbicidal ratio of 90% or more (almost completely withered))	0 (Herbicidal ratio of 5% or lower (almost no effect))	0 (Herbicidal ratio of 5% or lower (almost no effect))	4 (Herbicidal ratio of 70% or higher and lower than 90%)	5 (Herbicidal ratio of 90% or more (almost completely withered))	1 (Herbicidal ratio of 5% or higher and lower than 20%)	4 (Herbicidal ratio of 70% or higher and lower than 90%)	3 (Herbicidal ratio of 40% or higher and lower than 70%)	4 (Herbicidal ratio of 70% or higher and lower than 90%)	5 (Herbicidal ratio of 90% or more (almost completely withered))	–	–	–	–	–

— patent publication US11000033B2, “Ketone or oxime compound, and herbicide” (NISSAN CHEMICAL CORPORATION, priority 2014, dated 2021)
